Data on 14 compounds can be found in US8865894B2, “Oxazolidin-2-one compounds and uses thereof” (Novartis AG, priority 2012, dated 2014).

The target in the assay is T1, human PI3Kδ (Homo sapiens, UniProt O00329).
T1 construct: made in house
T1 sequence (O00329 2-1044 limits assumed): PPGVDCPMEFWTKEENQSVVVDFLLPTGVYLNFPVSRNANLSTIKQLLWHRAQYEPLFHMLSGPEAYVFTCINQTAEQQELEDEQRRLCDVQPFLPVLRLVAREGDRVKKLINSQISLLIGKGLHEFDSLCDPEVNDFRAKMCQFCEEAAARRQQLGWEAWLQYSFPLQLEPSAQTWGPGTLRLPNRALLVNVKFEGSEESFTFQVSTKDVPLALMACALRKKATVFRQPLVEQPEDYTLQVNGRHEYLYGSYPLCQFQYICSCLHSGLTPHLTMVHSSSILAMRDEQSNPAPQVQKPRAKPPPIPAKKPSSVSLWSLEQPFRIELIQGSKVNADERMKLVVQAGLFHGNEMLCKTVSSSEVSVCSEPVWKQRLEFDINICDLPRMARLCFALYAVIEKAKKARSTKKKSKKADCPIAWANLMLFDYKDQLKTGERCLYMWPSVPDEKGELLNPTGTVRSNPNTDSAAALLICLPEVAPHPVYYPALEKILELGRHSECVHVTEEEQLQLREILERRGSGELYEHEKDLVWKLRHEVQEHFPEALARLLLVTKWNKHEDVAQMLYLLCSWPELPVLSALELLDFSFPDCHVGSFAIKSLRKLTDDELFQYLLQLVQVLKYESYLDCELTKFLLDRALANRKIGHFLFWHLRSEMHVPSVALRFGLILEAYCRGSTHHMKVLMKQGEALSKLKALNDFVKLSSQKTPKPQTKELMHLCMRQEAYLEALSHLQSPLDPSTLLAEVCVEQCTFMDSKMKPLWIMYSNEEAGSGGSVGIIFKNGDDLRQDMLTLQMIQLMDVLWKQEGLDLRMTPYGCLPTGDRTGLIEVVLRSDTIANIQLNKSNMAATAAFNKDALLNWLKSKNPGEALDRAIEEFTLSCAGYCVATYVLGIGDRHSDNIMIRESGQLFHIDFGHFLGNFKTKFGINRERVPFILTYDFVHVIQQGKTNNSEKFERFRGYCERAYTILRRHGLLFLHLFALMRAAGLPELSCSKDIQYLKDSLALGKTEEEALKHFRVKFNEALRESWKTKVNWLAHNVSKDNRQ
Nature of the assay: Biochemical PI3Kdelta (TR-FRET Adapta Universal Kinase Assay). To be noted: mean of n measurements, read-out: PIK3d/ IC50. As to the method: Test compounds were dissolved in DMSO (10 mM) and transferred into 1.4 mL flat bottom or V-shaped Matrix tubes carrying a unique 2D matrix chip by individual Novartis compound hubs. The numbers of these chips were distinctively linked to Novartis Pharma Numbers. The stock solutions were stored at −20° C. if not used immediately. For the test procedure the vials were defrosted and identified by a scanner whereby a working sheet was generated that guided the subsequent working steps.
Compounds were either manually diluted in DMSO for individual experiments (96 wells enabling 10 cpds at 8 (single points) concentrations) as described in or prepared as described below if tested for profiling in 384-wells. This format enabled the assay of maximally 40 individual test compounds at 8 concentrations (single points) including 4 reference compounds. The dilution protocol included the production of “pre-dilution plates”, “master plates” and “assay plates”.
96 polypropylene well plates were used as pre-dilution plates. A total of 4 pre-dilution plates were prepared including 10 test compounds each on the plate positions A1-A10, one standard compound at A11 and one DMSO control at A12. Programs have been written to run these pipetting steps on the HamiltonSTAR robots.
Identical “assay plates” were then prepared by pipetting 50 nL each of compound dilutions of the “master plates” into 384-well “assay plates”. The compounds were mixed with 4.5 μL of assays components plus 4.5 μL enzyme corresponding to a 1:181 dilution enabling the final concentration of 10, 3.0, 1.0, 0.3, 0.1, 0.03, 0.01 and 0.003 μM, respectively. The preparation of the “master plates” was handled by the Matrix PlateMate Plus robot and replication of “assay plates” by the HummingBird robot.
Catalytically active human PI3Kα, PI3Kβ, PI3Kδ, and mTOR were cloned, expressed and purified as described (Maira S M, Stauffer F, Brueggen J, Furet P, Schnell C, Fritsch C, Brachmann S, Chène P, de Pover A, Schoemaker K, Fabbro D, Gabriel D, Simonen M, Murphy L, Finan P, Sellers W, García-Echeverría C (2008), Mol Cancer Ther. 7:1851-63 and Maira S M, Pecchi S, Brueggen J, Huh K, Schnell C, Fritsch C, Nagel T, Wiesmann M, Brachmann S, Dorsch M, Chène P, Schoemaker K, De Pover A, Menezes D, Fabbro D, Sellers W, García-Echeverría C, Voliva C F (2011), Mol. Cancer Ther. accepted).
The TR-FRET Adapta™ Universal Kinase Assay Kit was purchased from Invitrogen Corporation (Carlsbad/CA, USA) (Cat. No. PV5099). The kit contains the following reagents: Adapta Eu-anti-ADP Antibody (Europium labeled anti-ADP antibody in HEPES buffered saline, Cat. No. PV5097), Alexa Fluor® 647-labeled ADP tracer (Alexa Fluor® 647-labeled ADP tracer in HEPES buffered saline, Cat. No. PV5098), proprietary TR-FRET dilution buffer pH 7.5 (Cat. No. PV3574).
PIK3CD substrate Phosphatidylinositol was obtained from Invitrogen (vesicules consisting of 2 mM PI in 50 mM HEPES pH7.5; Cat. No. PV5371). PIK3CG substrate Phosphatidylinositol-4,5-bisphosphate (PIP(4,5)2 was obtained from Invitrogen (PIP2:PS large unilamellar vesicules consisting of 1 mM PIP2: 19 mM PS in 50 mM HEPES pH7.5, 3 mM MgCl2, 1 mM EGTA; Cat. No. PV5100).
Time-Resolved Fluorescence Resonance Energy Transfer (TR-FRET) is a technology based on energy transfer between two adjacent dyes, from an excited electron in one dye (the donor) to an electron of an adjacent dye (the acceptor) through resonance, then released as a photon. This energy transfer is detected by an increase in the fluorescence emission of the acceptor, and a decrease in the fluorescence emission of the donor. TR-FRET assays for protein kinases use a long-lifetime lanthanide Terbium or Europium chelates as the donor species which overcome interference from compound autofluorescence or light scatter from precipitated compounds, by introducing a delay after excitation by a flashlamp excitation source. Results are often expressed as a ratio of the intensities of the acceptor and donor fluorophores.
A general note: TR-FRET usually uses a lanthanide donor and a delayed reading to cut background.

On to `C[C@H]1C(CC(C)(C)O)OC(=O)N1c1cc(-c2cnc(N)nc2C(F)(F)F)nc(N2CCOCC2)n1` (mixture of isomers) [Example 26, (4S,5R)- and (4S,5S)-3-(2′-amino-2-morpholino-4′-(trifluoromethyl)-[4,5′-bipyrimidin]-6-yl)-5-(2-hydroxy-2-methylpropyl)-4-methyloxazolidin-2-one], for which the IC50 was 12 nM.

As for `CC1(CO)COC(=O)N1c1cc(-c2cnc(N)nc2C(F)(F)F)nc(N2CCOCC2)n1` (racemic) [Example 3, 3-(2′-amino-2-morpholino-4′-(trifluoromethyl)-4,5′-bipyrimidin-6-yl)-4-(hydroxymethyl)-4-methyloxazolidin-2-one], the IC50 stood at 12 nM.

For the compound `Nc1ncc(-c2cc(N3C(=O)O[C@@H]4[C@@H](O)CC[C@@H]43)nc(N3CCOCC3)n2)c(C(F)(F)F)n1` (racemic) [Example 22, (3aR*,6R*,6aR*)-3-(2′-Amino-2-morpholino-4′-(trifluoromethyl)-[4,5′-bipyrimidin]-6-yl)-6-hydroxyhexahydro-2H-cyclopenta[d]oxazol-2-one], the IC50 is 6 nM.

As for `Nc1ncc(-c2cc(N3C(=O)OC4C(O)CCC43)nc(N3CCOCC3)n2)c(C(F)(F)F)n1` (single isomer, unassigned) [Example 22A], the IC50 was 4 nM.

For the compound `Nc1ncc(-c2cc(N3C(=O)OC4C(O)CCC43)nc(N3CCOCC3)n2)c(C(F)(F)F)n1` (single isomer, unassigned) [Example 22B], the IC50 was found to be 5 nM.

As for `C[C@@H](O)C[C@H]1OC(=O)N(c2cc(-c3cnc(N)nc3C(F)(F)F)nc(N3CCOCC3)n2)[C@H]1C` (single isomer, unassigned) [Example 24], the IC50 came out at 9 nM.

For `C[C@H](O)CC1OC(=O)N(c2cc(-c3cnc(N)nc3C(F)(F)F)nc(N3CCOCC3)n2)[C@H]1C` (single isomer, unassigned) [Example 25], the IC50 is 7 nM.

Take `C[C@H]1COC(=O)N1c1cc(-c2cnc(N)nc2C(F)(F)F)nc(N2CCOCC2)n1` [Example 1, (S)-3-(2′-Amino-2-morpholin-4-yl-4′-trifluoromethyl-[4,5′]bipyrimidinyl-6-yl)-4-methyl-oxazolidin-2-one]: the IC50 was 7 nM.

As to `CC1(C)OC(=O)N(c2cc(-c3cnc(N)nc3C(F)(F)F)nc(N3CCOCC3)n2)[C@H]1CO` [Example 2, (S)-3-(2′-Amino-2-morpholin-4-yl-4′-trifluoromethyl-[4,5′]bipyrimidinyl-6-yl)-4-hydroxymethyl-5,5-dimethyl-oxazolidin-2-one], the IC50 amounted to 75 nM.

Turning to `Nc1ncc(-c2cc(N3C(=O)O[C@H]4CCCC[C@@H]43)nc(N3CCOCC3)n2)c(C(F)(F)F)n1` [Example 4, (3aS,7aS)-3-(2′-Amino-2-morpholin-4-yl-4′-trifluoromethyl-[4,5′]bipyrimidinyl-6-yl)-hexahydro-benzooxazol-2-one], the IC50 came to 4 nM.

In the case of `COC[C@H]1COC(=O)N1c1cc(-c2cnc(N)nc2C(F)(F)F)nc(N2CCOCC2)n1` [Example 5, (S)-3-(2′-Amino-2-morpholin-4-yl-4′-trifluoromethyl-[4,5′]bipyrimidinyl-6-yl)-4-methoxymethyl-oxazolidin-2-one], the IC50 was determined as 4 nM.

Take `C[C@@H]1OC(=O)N(c2cc(-c3cnc(N)nc3C(F)(F)F)nc(N3CCOCC3)n2)[C@H]1CO` [Example 6]: the IC50 amounted to 11 nM.

For `[2H]C1([2H])OC([2H])([2H])C([2H])([2H])N(c2nc(-c3cnc(N)nc3C(F)(F)F)cc(N3C(=O)O[C@H](C)[C@@H]3CO)n2)C1([2H])[2H]` [Example 8], the IC50 was found to be 21 nM.

`Nc1ncc(-c2cc(N3C(=O)OC[C@@H]3CCO)nc(N3CCOCC3)n2)c(C(F)(F)F)n1` [Example 9, (S)-3-(2′-Amino-2-morpholin-4-yl-4′-trifluoromethyl-[4,5′]bipyrimidinyl-6-yl)-4-(2-hydroxy-ethyl)-oxazolidin-2-one]: the IC50 stood at 32 nM.
